Test results reported in ChEMBL document CHEMBL1148204, “Isolation and structure assignments of rostratins A-D, cytotoxic disulfides produced by the marine-derived fungus Exserohilum rostratum” (J Nat Prod, 2004).

Each molecule was assayed on HCT-116 (assay: Cytotoxicity against human HCT116 cells).
Assay type: functional, cell-based
Molecule O=C1CC[C@H](O)[C@H]2[C@@H]1C[C@@]13SS[C@]4(C[C@@H]5C(=O)CC[C@H](O)[C@@H]5N4C1=O)C(=O)N23 [ROSTRATIN B] has an IC50 of 4.4 µM.
In the case of O=C1N2[C@H]3[C@H](C[C@]24SS[C@]12C[C@H]1[C@@H]([C@@H](O)CC[C@@H]1O)N2C4=O)[C@@H](O)CC[C@@H]3O [ROSTRATIN A], the IC50 is reported as 9 µM.
Molecule O=C1C[C@@H](S)[C@H](O)[C@H]2[C@@H]1C[C@@]13SS[C@]4(C[C@@H]5C(=O)C[C@@H](S)[C@H](O)[C@@H]5N4C1=O)C(=O)N23 [ROSTRATIN D] has an IC50 of 35 µM.
Molecule CO[C@H]1CC(=O)[C@H]2C[C@@]34SS[C@]5(C[C@@H]6C(=O)C[C@H](OC)[C@H](O)[C@@H]6N5C3=O)C(=O)N4[C@H]2[C@H]1O [ROSTRATIN C] has an IC50 of 1.6 µM.
